Assay results: US10087193B2, “Crystalline forms of dolutegravir sodium” (Mylan Laboratories Ltd., priority 2014, dated 2018)

Assays:
[1] = Thermodynamic stability of the crystalline form; format: physicochemical
[2] = Physical and chemical stability on storage (PXRD, Karl Fischer water content, HPLC purity); settings: for change in PXRD pattern on storage / degradation on storage / increase in moisture content on storage / physical and chemical stability (conclusion): 6 months at 40° C./75% RH and at 25° C./60% RH
Method: The physical and chemical stability of dolutegravir sodium Form-M2 and Form-M4 was determined by storing the samples at 40° C./75% relative humidity (RH) and at 25° C./60% RH for 6 months. At different time points during storage, the crystal structure of the material was analyzed by PXRD, the water content by Karl Fischer, and by HPLC for final purity.

[3] = storage at 25° C./60% RH, 1 month
[4] = storage at 25° C./60% RH, 3 months
[5] = storage at 25° C./60% RH, 6 months
[6] = storage at 25° C./60% RH, Initial
[7] = storage at 40° C./75% RH, 1 month
[8] = storage at 40° C./75% RH, 3 months
[9] = storage at 40° C./75% RH, 6 months
[10] = storage at 40° C./75% RH, Initial

Compound | change in PXRD pattern on storage [2] | degradation on storage [2] | increase in moisture content on storage [2] | physical and chemical stability (conclusion) [2] | HPLC purity (%) [2, 3] [%] | PXRD (polymorph found) [2, 3] | HPLC purity (%) [2, 4] [%] | PXRD (polymorph found) [2, 4] | HPLC purity (%) [2, 5] [%] | PXRD (polymorph found) [2, 5] | HPLC purity (%) [2, 6] [%] | PXRD (polymorph found) [2, 6] | HPLC purity (%) [2, 7] [%] | PXRD (polymorph found) [2, 7] | HPLC purity (%) [2, 8] [%] | PXRD (polymorph found) [2, 8] | HPLC purity (%) [2, 9] [%] | PXRD (polymorph found) [2, 9] | HPLC purity (%) [2, 10] [%] | PXRD (polymorph found) [2, 10] | further results
C[C@@H]1CCO[C@H]2Cn3cc(C(=O)NCc4ccc(F)cc4F)c(=O)c([O-])c3C(=O)N12.[Na+] [Form-M3, sodium (4R, 12aS)-9-((2,4-difluorobenzyl)carbamoyl)-4-methyl-6,8-dioxo-3,4,6,8, 12, 12a-hexahydro-2H-pyrido[1′,2′:4,5]pyrazino[2,1-b][1,3]oxazin-7-olate] |  |  |  |  |  |  |  |  |  |  |  |  |  |  |  |  |  |  |  |  | thermodynamic stability [1]: only metastable and not thermodynamically stable
C[C@@H]1CCO[C@H]2Cn3cc(C(=O)NCc4ccc(F)cc4F)c(=O)c([O-])c3C(=O)N12.[Na+] [Form-M4, sodium (4R, 12aS)-9-((2,4-difluorobenzyl)carbamoyl)-4-methyl-6,8-dioxo-3,4,6,8, 12, 12a-hexahydro-2H-pyrido[1′,2′:4,5]pyrazino[2,1-b][1,3]oxazin-7-olate] | no change in PXRD pattern | no significant degradation | no substantial increase in moisture content | physically and chemically stable | 99.17 | Form-M4 | 99.10 | Form-M4 | 99.0 | Form-M4 | 99.24 | Form-M4 | 99.2 | Form-M4 | 99.1 | Form-M4 | 99.0 | Form-M4 | 99.2 | Form-M4 | 
C[C@@H]1CCO[C@H]2Cn3cc(C(=O)NCc4ccc(F)cc4F)c(=O)c([O-])c3C(=O)N12.[Na+] [Form-M2, sodium (4R, 12aS)-9-((2,4-difluorobenzyl)carbamoyl)-4-methyl-6,8-dioxo-3,4,6,8, 12, 12a-hexahydro-2H-pyrido[1′,2′:4,5]pyrazino[2,1-b][1,3]oxazin-7-olate] | no change in PXRD pattern | no significant degradation | no substantial increase in moisture content | physically and chemically stable | 99.6 | Form-M2 | 99.5 | Form-M2 | 99.5 | Form-M2 | 99.7 | Form-M2 | 99.6 | Form-M2 | 99.5 | Form-M2 | 99.5 | Form-M2 | 99.7 | Form-M2 | 
